The source of these data is paper PMC6155721, “Hair Growth Promoting and Anticancer Effects of p21-activated kinase 1 (PAK1) Inhibitors Isolated from Different Parts of Alpinia zerumbet” (Molecules : A Journal of Synthetic Chemistry and Natural …, 2017).

Values joined by “and” are separate entries in the source; they are usually repeats but may differ in a detail not shown here. Equal entries are not always repeated. Where two headings read alike, the source gives them in different places.

The test system of one series is A549 lung cancer cells. Nature of the series: Anticancer activity by MTT assay. In kind it is cell-based. The note with it: mean ± SE of six replications, read-out: IC50 (μM), anti-cancer activity against the A549 cell line. The protocol:
The assay was performed as previously described. Lung cancer cells (A549) were seeded into a 96-well plate at a density of 1 × 10^4 cells/well, and cultured for 24 h before the compounds were added. The cells were incubated in a humidified atmosphere of 5% CO2 at 37 °C for 72 h. After treatment, 20 μL MTT solution (0.5 mg/mL) was added to each well, and the plates were incubated for 3 h. The medium was removed, and the formazan was dissolved in 200 μL of DMSO. After shaking the plate for 10 min, cell viability was assessed by measuring the absorbance at 490 nm using a microplate reader (Corona, Hitachinaka-ku, Ibaraki, Japan). DMSO was used as a blank. The corrected absorbance of sample was divided by the corrected absorbance of the control, and then multiplied by 100% to give the percentage cell viability.
On the technique in general: Tetrazolium assays rely on reduction of a dye to a coloured formazan, in cell work by metabolically active cells.

Series [1] concerns human follicle dermal papilla cells (HFDPC). Nature of the series: Human follicle dermal papilla cell (HFDPC) proliferation, MTT assay. The format is cell-based. As to conditions: for proliferation of HFDPC / Cell viability (%) / viability at 10 µM / viability at 50 µM / viability at 100 µM: four days incubation; for viability at 10 µM / viability at 50 µM / viability at 100 µM: Homo sapiens, 96 h. The protocol:
Human follicle dermal papilla cell (HFDPC) (TOYOBO, Tokyo, Japan) proliferation was assayed as described by Nguyen et al.. Cells were cultured in growth medium containing 50 mL papilla cell growth medium (PCGM), 0.5 mL FCS, 0.5 mL BPE, 0.25 mL Cyp, and 0.25 mL ITT (51.5 mL total volume). Cell viability was evaluated using the thiazolyl blue tetrazolium bromide (MTT) assay. Cells were collected and diluted in medium containing D-MEM and 10% FBS at a cell density of 1 × 10^4 cells/mL. Then, cell suspension (200 μL) was transferred into a collagen-coated 96-well plate at a density of 2000 cells/well. After incubation for three days, 200 μL of the isolated compounds in DMEM was added. After four days of incubation, 100 μL of MTT solution in D-MEM (0.4 mg/mL) was added, and the mixture was incubated for 2 h. The untransformed MTT was removed, and 100 μL of 2-propanol was added to each well to dissolve the formazan crystals. The absorbance was read at 570 nm and 650 nm using a microplate reader. The cell viability was calculated from the readings, and represented as a percentage of the control value (cells treated with D-MEM only).

For another series, the target named is human PAK1 (Homo sapiens, UniProt Q13153). Briefly: In vitro PAK1 inhibition, ADP-Glo kinase assay. In kind it is biochemical. As to conditions: mean ± SE of six replications, read-out: IC50 (μM), in vitro PAK1 inhibitory activity. On the procedure: PAK1 kinase activity was measured using the ADP-Glo™ kinase assay kit (Promega, Madison, WI, USA) according to manufacturer’s instructions. Briefly, human PAK1 (25 ng/reaction) was incubated with test compounds (5 μL) for 10 min. […] The reaction was terminated by adding 25 μL ADP-Glo™ reagent, followed by an incubation time of 40 min. The kinase detection reagent (50 μL) was added to the reaction mixture, and after 30 min of incubation, the luminescence was recorded by MTP-880Lab microplate reader (Corona, Ibaraki, Japan) with an integration time of 0.5 s per well. The percentage inhibition was calculated relative to the control kinase activity without any inhibitor.
Sequence of human PAK1 (Q13153 whole entry): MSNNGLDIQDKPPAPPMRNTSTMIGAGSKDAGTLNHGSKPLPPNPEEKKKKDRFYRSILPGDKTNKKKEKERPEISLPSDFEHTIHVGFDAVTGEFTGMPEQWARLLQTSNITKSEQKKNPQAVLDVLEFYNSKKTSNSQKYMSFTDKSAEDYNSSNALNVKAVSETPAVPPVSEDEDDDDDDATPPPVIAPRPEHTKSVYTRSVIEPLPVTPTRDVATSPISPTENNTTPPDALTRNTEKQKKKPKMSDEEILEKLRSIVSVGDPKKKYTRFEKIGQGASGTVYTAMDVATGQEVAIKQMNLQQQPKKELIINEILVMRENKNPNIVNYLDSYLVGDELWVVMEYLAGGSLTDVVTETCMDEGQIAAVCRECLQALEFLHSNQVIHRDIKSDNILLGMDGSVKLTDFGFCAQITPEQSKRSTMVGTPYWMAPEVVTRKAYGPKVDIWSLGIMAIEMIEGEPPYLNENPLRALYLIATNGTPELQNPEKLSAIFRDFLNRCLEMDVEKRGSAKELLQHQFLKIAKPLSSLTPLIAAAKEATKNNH

[2] abbreviates: 100 μM, percentage of control value.
Setting [3] is: 10 μM, percentage of control value (cells treated with D-MEM only).

As usually defined, the IC50 is the concentration that inhibits the measured activity by half. In the case of `COc1cc(/C=C/C(=O)CC(=O)/C=C/c2ccc(O)c(OC)c2)ccc1O` [Curcumin, reference compound], the IC50 with A549 lung cancer cells (72 h) was 30.3 ± 2.9 µM; in the series on A549 lung cancer cells (Homo sapiens, A549, 72 h), 30 µM.

The viability is a read-out of living cells in per cent, often relative to untreated cells. `O=C(O)C1OC(Oc2c(-c3ccc(O)cc3)oc3cc(O)cc(O)c3c2=O)C(O)C(O)C1O` [KOG, kaempferol-3-O-β-D-glucuronide]: the “proliferation of HFDPC / Cell viability (%)” value in series [1] (setting [2]) is given as approximately 180%. For the same molecule, the viability at 10 µM in series [1] (setting [3]) worked out at 118%. The viability at 50 µM in series [1] (percentage of control value) came out at 158%. The viability at 100 µM in series [1] (setting [2]) turned out to be 181%. For the same molecule, the IC50 on human PAK1 was 39 µM and 39.3 µM; in the series on A549 lung cancer cells (Homo sapiens, A549, 72 h), 81.4 ± 1.9 µM.

For the molecule `C=C1CCC2C(C)(C)CCCC2(C)C1C/C=C(/C=O)CC=O` (centres unmarked) [Labdadiene, 8(17),12-Labdadiene-15,16-dial], the “proliferation of HFDPC / Cell viability (%)” value is on record as “about 132%” in series [1] (setting [3]) and approximately 226% in series [1] (setting [2]). Besides, in series [1] (setting [3]), the viability at 10 µM was determined as 133%. Besides, the viability at 50 µM in series [1] (percentage of control value) worked out at 197%. Also, the viability at 100 µM in series [1] (setting [2]) amounted to 227%. The concentration for half-maximal inhibition (IC50) was 52 µM and 52.1 µM on human PAK1; 67.1 ± 6 µM in the series with A549 lung cancer cells (72 h); 67 µM in the series on A549 lung cancer cells (Homo sapiens, A549, 72 h).

As for `CO/C=C/C=C/C=C/C1C=CC(/C=C/C=C/C=C/OC)O1` (centres unmarked) [MTD], the viability at 10 µM in series [1] (setting [3]) stood at 165%. In addition, the viability at 50 µM in series [1] (percentage of control value) amounted to 190%. The viability at 100 µM in series [1] (setting [2]) came out at 113%. The 50% inhibitory concentration (IC50) on human PAK1 is 59 µM and 58.6 µM; in the series with A549 lung cancer cells (Homo sapiens, A549, 72 h), 98.9 ± 9.3 µM.

Turning to `Nc1cc(N2CCCCC2)nc(N)[n+]1[O-]` [Minoxidil, reference compound], in series [1] (setting [3]), the “proliferation of HFDPC / Cell viability (%)” value is reported as 119% and the viability at 10 µM turned out to be 116%.

For the molecule `C=C1CC2CC(C)(C)C(C)(C)CN2CC1CCCCC/C=C/C` (centres unmarked) [TMOQ, (E)-2,2,3,3-tetramethyl-8-methylene-7-(oct-6-en-1-yl)octahydro-1H-quinolizine], in series [1] (setting [3]), the viability at 10 µM came out at 139%. Moreover, the viability at 50 µM in series [1] (percentage of control value) stood at 104%. For the same molecule, the viability at 100 µM in series [1] (setting [2]) is 68.5%. Moreover, the “effect on hair cell proliferation” value in series [1] (at around 50 μM or higher) is reported as “did not significantly affect the hair cell proliferation”. Besides, the IC50 on human PAK1 is 49 µM and ~50 µM and 49.3 µM; in the series on A549 lung cancer cells (Homo sapiens, 72 h), 90.8 ± 1.6 µM.
